Target: T1, CAD (GFP-CAD; assayed as GFP-CAD-D1371A) (Homo sapiens, UniProt P27708, D1371A)
T1 construct: full-length CAD subcloned into Not I/Bgl II sites of pEGFP-N1-His (GFP fusion, GFP kept); expressed in HEK-293T; RIPA lysate diluted 150x in MST buffer, not purified
Assay: microscale thermophoresis, GFP fusion in diluted HEK-293T lysate
Assay type: binding
Excerpt: microscale thermophoresis, GFP fusion in diluted HEK-293T lysate on CAD (GFP-CAD; assayed as GFP-CAD-D1371A) | direct interaction between RMY-186 and CAD-D1371A protein in vitro, with a Kd of […]

T1 sequence (P27708 whole entry D1371A, the tested form may be a part): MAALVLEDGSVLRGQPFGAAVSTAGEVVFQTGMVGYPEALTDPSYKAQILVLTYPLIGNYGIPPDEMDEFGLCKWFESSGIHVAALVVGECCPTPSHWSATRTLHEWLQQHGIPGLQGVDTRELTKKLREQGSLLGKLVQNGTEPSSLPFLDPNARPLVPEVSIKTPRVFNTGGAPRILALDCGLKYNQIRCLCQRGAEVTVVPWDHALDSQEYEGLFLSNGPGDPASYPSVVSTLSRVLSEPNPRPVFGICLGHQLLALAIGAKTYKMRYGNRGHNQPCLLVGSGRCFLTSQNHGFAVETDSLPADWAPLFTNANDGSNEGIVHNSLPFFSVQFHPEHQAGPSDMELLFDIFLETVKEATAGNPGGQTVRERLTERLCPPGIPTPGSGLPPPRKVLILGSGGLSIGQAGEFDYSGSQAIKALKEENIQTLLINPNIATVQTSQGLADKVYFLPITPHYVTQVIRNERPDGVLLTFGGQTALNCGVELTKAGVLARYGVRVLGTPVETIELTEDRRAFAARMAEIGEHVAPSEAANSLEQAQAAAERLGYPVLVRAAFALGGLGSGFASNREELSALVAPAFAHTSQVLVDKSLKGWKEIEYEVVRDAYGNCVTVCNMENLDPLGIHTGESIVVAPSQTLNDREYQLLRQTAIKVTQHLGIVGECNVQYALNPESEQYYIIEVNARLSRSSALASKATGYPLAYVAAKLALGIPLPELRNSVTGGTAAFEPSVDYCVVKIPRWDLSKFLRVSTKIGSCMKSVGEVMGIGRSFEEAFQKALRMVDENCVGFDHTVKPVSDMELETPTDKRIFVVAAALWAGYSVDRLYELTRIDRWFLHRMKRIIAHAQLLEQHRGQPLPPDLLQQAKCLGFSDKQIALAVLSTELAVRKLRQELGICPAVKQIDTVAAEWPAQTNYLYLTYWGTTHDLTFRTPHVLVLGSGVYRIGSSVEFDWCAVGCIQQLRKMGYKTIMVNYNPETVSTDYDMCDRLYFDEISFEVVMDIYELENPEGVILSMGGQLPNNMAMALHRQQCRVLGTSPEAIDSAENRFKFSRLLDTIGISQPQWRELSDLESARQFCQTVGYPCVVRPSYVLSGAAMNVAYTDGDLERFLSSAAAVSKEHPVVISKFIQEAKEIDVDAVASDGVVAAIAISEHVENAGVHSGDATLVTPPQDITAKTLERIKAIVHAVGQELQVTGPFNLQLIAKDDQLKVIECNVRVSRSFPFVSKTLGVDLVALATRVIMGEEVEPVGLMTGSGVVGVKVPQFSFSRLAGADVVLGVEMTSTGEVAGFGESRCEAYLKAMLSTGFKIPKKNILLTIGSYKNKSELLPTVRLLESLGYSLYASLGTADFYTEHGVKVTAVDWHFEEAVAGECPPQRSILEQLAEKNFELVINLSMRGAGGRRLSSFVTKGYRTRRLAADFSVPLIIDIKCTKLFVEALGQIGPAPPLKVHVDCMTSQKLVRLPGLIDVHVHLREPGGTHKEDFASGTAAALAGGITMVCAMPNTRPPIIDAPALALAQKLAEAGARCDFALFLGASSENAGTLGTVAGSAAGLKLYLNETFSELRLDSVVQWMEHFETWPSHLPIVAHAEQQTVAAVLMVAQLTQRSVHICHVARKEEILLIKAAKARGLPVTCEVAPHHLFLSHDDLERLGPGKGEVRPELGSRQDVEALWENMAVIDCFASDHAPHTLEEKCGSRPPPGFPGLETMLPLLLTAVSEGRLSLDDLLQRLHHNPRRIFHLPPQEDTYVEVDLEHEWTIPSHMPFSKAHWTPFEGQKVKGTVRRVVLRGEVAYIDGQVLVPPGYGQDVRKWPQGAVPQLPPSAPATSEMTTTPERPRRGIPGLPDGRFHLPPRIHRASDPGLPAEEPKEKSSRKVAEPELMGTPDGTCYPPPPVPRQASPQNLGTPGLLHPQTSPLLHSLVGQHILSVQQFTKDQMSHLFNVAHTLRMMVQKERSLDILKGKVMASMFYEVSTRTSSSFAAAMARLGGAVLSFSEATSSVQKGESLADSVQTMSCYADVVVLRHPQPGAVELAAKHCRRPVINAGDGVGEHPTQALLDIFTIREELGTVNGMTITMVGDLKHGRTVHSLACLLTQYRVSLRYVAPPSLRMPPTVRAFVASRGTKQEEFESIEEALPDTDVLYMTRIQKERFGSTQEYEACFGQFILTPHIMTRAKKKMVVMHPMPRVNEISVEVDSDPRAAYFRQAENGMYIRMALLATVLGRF

Kd: 6.78 µM
SMILES: O=c1c(O)c(N2CCN(Cc3cccc(Br)c3)CC2)oc2ccccc12 [compound 9, 2-(4-(3-bromobenzyl)-piperazin-1-yl)-3-hydroxy-4H-chromen-4-one]

From publication PMC12123037, “Cleavage of CAD by caspase-3 determines the cancer cell fate during chemotherapy” (Nature Communications, 2025)
